# Test results reported in patent publication US8680137B2, “Agents and methods for treating ischemic and other diseases” (Nono Inc., priority 2009, dated 2014).
# “Also recorded” adds a separate entry of the source.
# What was measured:
# [1] = system: Weri retinoblastoma cells; test: Cancer cell proliferation, Weri; format: cell-based; settings: >20% inhibition at 48-96 hours, MTT, SRB, luminescence or BrDU
# Experimental: To determine the breadth of efficacy in cancers, we examined the efficacy of a range of TRPM7 inhibitors for their ability to inhibit cell proliferation in cancer cell lines. Representative figures are included as examples.
# Cells (Table 1) were grown to 70% confluency, trypsinized, counted, and seeded in 96-well flat-bottom plates at a final concentration of 2.5×10^3-5.0×10^3 cells/well in growth media containing 5% FBS (Day 0). Other well sizes and cell densities were used successfully as well. Cells were allowed to incubate in growth media for 24 hours to allow for maximum adhesion. Treatment with the test agent began on Day 1 and continued for 72 hours either with or without retreatment. At the 72 hour time point, viable cell numbers are quantified by the CellTiter-Glo® cell viability assay as described above, or using standard MTT, SRB or BrDU assays. Experiments were repeated at least twice with the same concentrations to determine growth inhibitory activity.
# Data Collection—For the cell proliferation studies, data from each experiment was collected and expressed as % Cell Growth using the following calculation: % Cell Growth=(ftest/fvehicle)×100 Where ftest is the luminescent signal of the tested sample, and fvehicle is the luminescence of the vehicle in which the drug is dissolved (or appropriate measure for the other viability/proliferation measures). Dose response graphs and IC50 values were generated using standard software using the following variable slope equation: […]
# [2] = system: primary cultured mouse cortical cells; test: OGD-induced anoxic death in murine primary neuronal cell cultures, PI fluorescence; format: cell-based; settings: 1 to 3 hours OGD, with or without MCN, applied prior to or following OGD
# Experimental: TRPM7 inhibitors were tested for their ability to reduce anoxic death in murine primary neuronal cell cultures subjected to 1 to 3 hours of OGD. This assay was generally performed as described by Aarts et al (2003). In brief, mixed cortical cultures enriched with neurons (85%) were prepared and used for experiments after 12-14 days in vitro. The cultures were transferred to an anaerobic chamber containing 5% CO2, 10% H and 85% N2. Cultures were washed 3× with 500 μl deoxygenated glucose free bicarbonate solution and maintained anoxic for the appropriate duration at 37° C. OGD was terminated by washing the cultures with oxygenated glucose-containing bicarbonate solution, and the cultures were further maintained 1-24 hours in a humidified 5% CO2 atmosphere. Cell death wash generally measured by fluorescence measurement of PI (50 ug/ml) in a multiwall plate reader (CytoFluor II, Perseptive Biosystems).
# TRPM7 = TRPM7 (Mus musculus, UniProt Q923J1); test: Whole-cell patch clamp recording of TRPM7 currents in HEK293 cells expressing TRPM7; settings: for TRPM7 currents, applied intracellularly: in intracellular recording fluid, final concentration 2 mM, 10-20 minutes; for TRPM7 currents, extracellular application: tested at 0.3, 1, 3, 10 and 30 μM
# Sequence of TRPM7 (Q923J1 whole entry): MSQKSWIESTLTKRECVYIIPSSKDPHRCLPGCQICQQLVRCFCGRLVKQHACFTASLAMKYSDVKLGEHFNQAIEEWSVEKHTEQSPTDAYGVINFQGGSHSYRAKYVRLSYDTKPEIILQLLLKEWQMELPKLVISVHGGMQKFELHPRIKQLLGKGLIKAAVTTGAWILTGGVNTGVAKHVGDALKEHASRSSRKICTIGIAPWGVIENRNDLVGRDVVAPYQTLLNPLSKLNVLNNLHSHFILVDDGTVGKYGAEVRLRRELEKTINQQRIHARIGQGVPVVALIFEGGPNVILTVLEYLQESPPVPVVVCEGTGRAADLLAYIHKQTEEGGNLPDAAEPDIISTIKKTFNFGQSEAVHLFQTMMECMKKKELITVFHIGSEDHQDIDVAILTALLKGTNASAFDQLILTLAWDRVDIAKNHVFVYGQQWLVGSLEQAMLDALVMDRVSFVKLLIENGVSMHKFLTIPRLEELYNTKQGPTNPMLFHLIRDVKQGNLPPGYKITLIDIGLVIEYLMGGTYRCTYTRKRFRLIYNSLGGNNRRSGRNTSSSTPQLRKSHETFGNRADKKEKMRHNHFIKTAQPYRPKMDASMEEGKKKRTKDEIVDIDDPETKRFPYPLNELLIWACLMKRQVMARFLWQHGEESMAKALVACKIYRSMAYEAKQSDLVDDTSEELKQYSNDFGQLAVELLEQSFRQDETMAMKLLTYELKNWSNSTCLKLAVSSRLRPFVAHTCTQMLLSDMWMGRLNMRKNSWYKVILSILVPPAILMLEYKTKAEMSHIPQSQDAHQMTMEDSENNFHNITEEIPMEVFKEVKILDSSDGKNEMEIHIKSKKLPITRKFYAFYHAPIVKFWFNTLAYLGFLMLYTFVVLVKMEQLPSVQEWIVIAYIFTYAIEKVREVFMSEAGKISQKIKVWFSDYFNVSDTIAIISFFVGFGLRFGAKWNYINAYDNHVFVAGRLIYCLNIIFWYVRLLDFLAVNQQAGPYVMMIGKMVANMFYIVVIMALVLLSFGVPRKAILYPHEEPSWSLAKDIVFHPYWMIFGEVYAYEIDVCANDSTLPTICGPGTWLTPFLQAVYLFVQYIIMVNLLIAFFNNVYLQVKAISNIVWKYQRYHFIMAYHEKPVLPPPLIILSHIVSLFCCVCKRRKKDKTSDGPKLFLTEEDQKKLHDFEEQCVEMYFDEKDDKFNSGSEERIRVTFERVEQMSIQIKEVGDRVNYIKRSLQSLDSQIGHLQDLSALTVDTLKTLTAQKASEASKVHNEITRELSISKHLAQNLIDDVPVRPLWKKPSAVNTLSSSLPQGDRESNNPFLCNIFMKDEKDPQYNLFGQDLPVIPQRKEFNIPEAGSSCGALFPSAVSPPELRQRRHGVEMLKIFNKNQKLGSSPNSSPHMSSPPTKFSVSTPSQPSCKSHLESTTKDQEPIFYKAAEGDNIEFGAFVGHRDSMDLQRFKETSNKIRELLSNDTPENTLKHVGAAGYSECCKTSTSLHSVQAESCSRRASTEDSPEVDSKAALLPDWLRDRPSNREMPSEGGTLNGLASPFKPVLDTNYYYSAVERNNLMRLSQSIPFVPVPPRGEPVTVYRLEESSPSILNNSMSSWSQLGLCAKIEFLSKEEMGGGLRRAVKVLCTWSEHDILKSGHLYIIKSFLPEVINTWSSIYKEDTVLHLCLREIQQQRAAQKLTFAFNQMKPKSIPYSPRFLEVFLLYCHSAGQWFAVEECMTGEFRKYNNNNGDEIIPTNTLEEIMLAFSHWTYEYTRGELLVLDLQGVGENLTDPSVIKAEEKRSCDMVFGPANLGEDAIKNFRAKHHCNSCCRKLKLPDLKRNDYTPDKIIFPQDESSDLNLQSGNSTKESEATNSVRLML
# Experimental: Whole-cell patch clamp recordings were used essentially as described to test the TRPM7 inhibitors in HEK293 cells, H9c2 cardiomyocytes and cultured neurons. Each test compound was tested at 0.3, 1, 3, 10 and 30 μM, or as high as solubility permits.
# To assess whether the M-compounds were inhibiting TRPM7 currents from an intracellular or extracellular location, M21 and M6 were dissolved in DMSO at 10 mM as stock, then diluted into intracellular recording fluid (ICF) to final concentration of 2 mM Immediately start recording of the TRPM7 like currents to RAMP change of membrane potentials after making the whole cell. Recording lasts for 10-20 minutes to compare the currents between control and test group.
# H9c2 cells = test: OGD-induced cell death in H9c2 cardiomyocytes, PI uptake; format: cell-based, rat; settings: for resilience to OGD: 0.05-5.0 μM; for protection against OGD-induced death, pre-treatment: pre-treatment before OGD
# Experimental: The rat cardiomyoblast cell line H9c2 was obtained from the American Type Culture Collection (CRL-1446) and cultured in Dulbecco's Modified Eagle Medium supplemented with 10% (v/v) heat-inactivated fetal bovine serum and 1% antibiotic-antimycotic. Cells were grown in an atmosphere of […]/5% CO2 in a humidified incubator.
# H9c2 cells were made anoxic by replacing the medium with de-oxygenated Ischemic buffer (in mM: 1.13 CaCl2, 5 KCl, 0.3 KH2PO4, 0.5 MgCl2, 0.4 MgSO4, 128 NaCl, 10 HEPES) and by transferring them to an anaerobic chamber (5% CO2, 10% H2, 85% N2) for 6 hrs or 16 hrs at 37° C. OGD was terminated by washing the cells with oxygenated glucose-containing Control buffer (in mM: 1.13 CaCl2, 5 KCl, 0.3 KH2PO4, 0.5 MgCl2, 0.4 MgSO4, 128 NaCl, 10 HEPES 10 Glucose). Cultures were maintained for another 2 hrs at 37° C. in a humidified 5% CO2 atmosphere. Normoxic cells were maintained in Control buffer for the duration of the experiment.
# Cell death was determined by fluorescence measurements of PI (5 μg/ml) using a multiwell plate fluorescence scanner. The fraction of dead cells in each culture was calculated as: fraction dead=(Ft−F0)/Fmax where Ft=PI fluorescence at 2 hrs post-OGD, F0=initial PI fluorescence immediately after the OGD treatment, and Fmax=PI fluorescence of the same cultures following 20 mins incubation in 1% TritonX-100.
# H9c2 cells were cultured and subjected to OGD as described supra. FIG. 71 panels A and B show the results of exposure to M21 or M5 for 24 hours following 6 hours of OGD. FIG. 71 panels C and D show the results of H9c2cells were treated with either 1 mM Mg^2+, 5 μM M6, M11 (acute treatment) during the anoxic and recovery periods, or 1 μM nifedipine. Results are presented as mean±SEM (n=4).
# retinal explants = test: OGD in cultured ex vivo retinal explants; format: cell-based, rat; settings: 1 hr OGD
# Experimental: The ability of TRPM7 inhibitors to protect other types of cell cultures following exposure to anoxia, including non-neuronal cell cultures, has also been tested. In general, cultures of growing cells are exposed to a 1-6 hour period of anoxia, followed by addition of a TRPM7 at a range of concentrations upon removal from anoxic conditions. […] This implies that TRPM7 inhibitors may be useful both as a treatment for anoxic damage to patients presenting symptoms of a disorder associated with anoxic damage, or as a preventative measure. Such preventative measures can be chronic, such as treatment to protect against damage from heart attacks or strokes, or acute, to be given prior to or during surgical procedures, which may include but not be limited to procedures that involve endovascular invasion and have the possibility of dislodging material that may block blood flow through arteries. Other types of preventative measures can include the reduction of anoxic damage associated with cardiovascular issues (heart attack, myocardial infarction, acute ischemic attacks, atrial fibrillation, etc), brain disorders (stroke, neurotrauma, etc), diabetic disorders (blindness, deafness, neuropathy), retinal/eye disorders (glaucoma, macular degeneration, blindness), aural disorders (deafness, progressive deafness, hearing loss), muscle disorders (weakness, myodegenerative disease, disorders associated with mitochondrial depletion), and organ disorders (kidney, lung, liver disorders associated with ischemia or anoxic damage).
# Acute and chronic retinal ischemia are major causes of blindness. Retinal damage from glaucoma, also termed “slow excitotoxicity” afflicts millions of people each year and is the second leading cause of blindness worldwide (after cataracts). Diabetic retinopathy is also very common, afflicting about 40% of diabetics and, while less commonly producing complete blindness, is a leading cause of visual impairment. The retina is an extension of the CNS, and was the first organ in which excitotoxicity was described. […]
Compound,Demonstrated Reduction of Proliferation at or below 10 μM Inhibitor concentration [1],protection from anoxic death after OGD [2],"TRPM7 currents, applied intracellularly (TRPM7)","TRPM7 currents, extracellular application (TRPM7)","TRPM7 currents, extracellular application (TRPM7; listed as 6)",resilience to OGD (H9c2 cells),"protection against OGD-induced death, pre-treatment (H9c2 cells)",survival / resilience following exposure to OGD (retinal explants),"TRPM7 currents, extracellular application (TRPM7; listed as 11)","TRPM7 currents, extracellular application (TRPM7; listed as 21)"
COc1cc2c(cc1OC)C(c1sc3ccccc3c1Cl)=NCC2 [Compound M6],Weri retinoblastoma,protection of cultures from anoxic death is observed,do not affect TRPM7 currents,reduces current through the TRPM7 channel,inhibited ion currents through TRPM7,enhanced their resilience to OGD,comparable result to treatment after the onset of anoxia,enhanced their resilience to OGD,,
O=C(Nc1ccc(F)cc1)C(Sc1ccc(Cl)cc1)c1ccccc1 (stereo not shown) [Compound M11],Weri retinoblastoma,protection has been demonstrated,,highest level of inhibition,,enhanced their resilience to OGD,less robust rescue of the OGD-induced death,promote survival,inhibited ion currents through TRPM7,
Cc1c(Cc2ccc(Cl)c(Cl)c2)c(=O)oc2cc(O)ccc12 [Compound M21],Weri retinoblastoma,protection of cultures from anoxic death is observed,do not affect TRPM7 currents,highest level of inhibition,,enhanced their resilience to OGD,,promote survival; also recorded: enhanced their resilience to OGD,,inhibited ion currents through TRPM7
